Source: patent US9273095B2, “Antibiotic peptide and preparation method therefor and application therefor” (priority 2011, dated 2016)
Marks after values point to notes of the source that are not given here. Non-standard residues stand in square brackets, D forms with d. Residues, ends and D or L forms follow the SMILES beside them.

Experiments:
Pseudomonas aeruginosa = test: Therapeutic test of injection on mice with systemic infection, survival time; assay type: in vivo, ICR mice; conditions: for Mean survival Time: observed fourteen days; for Mean survival Time / Mortality of mice in different days after infection: n = 10
Source text: (§1) There are 30 male and 30 female ICR mice with the weight ranging from 18 g to 22 g. According to their weight, they are randomly divided into 6 groups of 10 mice: blank control group, negative control group, Levofloxacin positive control group, PL-13 (SEQ ID NO: 1) high dose group, PL-13 (SEQ ID NO: 1) middle dose group and PL-13 (SEQ ID NO: 1) low dose group. Each group is raised in the same plastic case. With trinitrophenal marking method, all the mice are raised with ordinary animal feeds in the ordinary animal houses and they can drink water freely. Alternating of light and dark is conducted every 12 hours.
(§2) 2. Infected Strains: Pseudomonas aeruginosa and Staphylococcus aureus
(§3) PL-18 (SEQ ID NO: 1) freeze-dried powder injections (supplied by Jiangsu ProteLight Pharmaceutical & Biotechnology Co., LTD.), Levofloxacin Hydrochloride and Sodium Chloride Injection (supplied by Yangtze River Pharmaceutical Group) and 0.9% Sodium Chloride Injection (supplied by Chifeng Rongjitang Pharmaceutical CO., Ltd.)
(§4) (1) The preparation of bacterial suspension is the same as above.
(§5) (2) The Pseudomonas aeruginosa suspension cultured overnight is diluted to 1×10^9CFU/ml. The Staphylococcus aureus suspension cultured overnight is diluted to 1×10^8CFU/ml. They are all applied in reserve.
(§6) (3) Except the blank control group, every other mouse is injected with 0.2 ml Pseudomonas aeruginosa suspension with the concentration of 1×10^9CFU/ml or 0.2 ml Staphylococcus aureus suspension with the concentration of 1×10^8CFU/ml intraperitoneally to make model.
(§7) (4) Administration: Inject the drugs according to weight right after the model is ready. All the groups excepting the blank and the negative infected group are injected with different dosage of different injections through caudal vena twice a day successively for three days, and they are observed for fourteen days.
(§8) (5) Observe death of the animals and record their survival time.

Staphylococcus aureus = test: as above; assay type: in vivo, ICR mice; conditions: for Mean survival Time: observed fourteen days; for Mean survival Time / Mortality of mice in different days after infection: n = 10
Source text: as §1, §2, §3, §4, §5, §6, §7, §8

[1] = 30 mg/kg twice a day for three days
[2] = day 1, 30 mg/kg twice a day for three days
[3] = day 2, 30 mg/kg twice a day for three days
[4] = day 3, 30 mg/kg twice a day for three days
[5] = day 4, 30 mg/kg twice a day for three days
[6] = day 5, 30 mg/kg twice a day for three days
[7] = 0.2 mg/kg (low) caudal vena twice a day for three days
[8] = 1 mg/kg (middle) caudal vena twice a day for three days
[9] = 5 mg/kg (high) caudal vena twice a day for three days
[10] = day 1, 0.2 mg/kg (low) caudal vena twice a day for three days
[11] = day 1, 1 mg/kg (middle) caudal vena twice a day for three days
[12] = day 1, 5 mg/kg (high) caudal vena twice a day for three days
[13] = day 2, 0.2 mg/kg (low) caudal vena twice a day for three days
[14] = day 2, 1 mg/kg (middle) caudal vena twice a day for three days
[15] = day 2, 5 mg/kg (high) caudal vena twice a day for three days
[16] = day 3, 0.2 mg/kg (low) caudal vena twice a day for three days
[17] = day 3, 1 mg/kg (middle) caudal vena twice a day for three days
[18] = day 3, 5 mg/kg (high) caudal vena twice a day for three days
[19] = day 4, 0.2 mg/kg (low) caudal vena twice a day for three days
[20] = day 4, 1 mg/kg (middle) caudal vena twice a day for three days
[21] = day 4, 5 mg/kg (high) caudal vena twice a day for three days
[22] = day 5, 0.2 mg/kg (low) caudal vena twice a day for three days
[23] = day 5, 1 mg/kg (middle) caudal vena twice a day for three days
[24] = day 5, 5 mg/kg (high) caudal vena twice a day for three days

C[C@H]1COc2c(N3CCN(C)CC3)c(F)cc3c(=O)c(C(=O)O)cn1c23 [Levofloxacin, levofloxacin, reference compound]
5: Mortality of mice in different days after infection (Staphylococcus aureus; [2])
6.4** day: Mean survival Time (Pseudomonas aeruginosa; [1])
2: Mortality of mice in different days after infection (Pseudomonas aeruginosa; [3]) | Mortality of mice in different days after infection (Staphylococcus aureus; [3])
0: Mortality of mice in different days after infection (Pseudomonas aeruginosa; [4]) | Mortality of mice in different days after infection (Pseudomonas aeruginosa; [5]) | Mortality of mice in different days after infection (Pseudomonas aeruginosa; [6]) | Mortality of mice in different days after infection (Staphylococcus aureus; [4]) | Mortality of mice in different days after infection (Staphylococcus aureus; [5]) | Mortality of mice in different days after infection (Staphylococcus aureus; [6])
5.4** day: Mean survival Time (Staphylococcus aureus; [1])
4: Mortality of mice in different days after infection (Pseudomonas aeruginosa; [2])

CC(=O)N[C@H](Cc1ccccc1)C(=O)N[C@H](CCCCN)C(=O)N[C@H](CCCCN)C(=O)N[C@H](CC(C)C)C(=O)N[C@H](CCCCN)C(=O)N[C@H](CCCCN)C(=O)N[C@H](CC(C)C)C(=O)N[C@H](Cc1ccccc1)C(=O)N[C@H](CO)C(=O)N[C@H](CCCCN)C(=O)N[C@H](CC(C)C)C(=O)N[C@H](Cc1c[nH]c2ccccc12)C(=O)N[C@H](CC(N)=O)C(=O)N[C@H](Cc1c[nH]c2ccccc12)C(=O)N[C@H](CCCCN)C(N)=O [PL-18] (Ac-[dF][dK][dK][dL][dK][dK][dL][dF][dS][dK][dL][dW][dN][dW][dK]-NH2)
7.7** day: Mean survival Time (Pseudomonas aeruginosa; [8])
very good: anti-infection effect (in words) (Pseudomonas aeruginosa; high, middle and low dose injection, systemic infection of Pseudomonas aeruginosa) | anti-infection effect (in words) (Staphylococcus aureus; high, middle and low dose injection, systemic infection of Staphylococcus aureus)
9.9** day: Mean survival Time (Staphylococcus aureus; [9])
1: Mortality of mice in different days after infection (Pseudomonas aeruginosa; [14]) | Mortality of mice in different days after infection (Pseudomonas aeruginosa; [15]) | Mortality of mice in different days after infection (Pseudomonas aeruginosa; [16]) | Mortality of mice in different days after infection (Pseudomonas aeruginosa; [23]) | Mortality of mice in different days after infection (Staphylococcus aureus; [10]) | Mortality of mice in different days after infection (Staphylococcus aureus; [11]) | Mortality of mice in different days after infection (Staphylococcus aureus; [15]) | Mortality of mice in different days after infection (Staphylococcus aureus; [16]) | Mortality of mice in different days after infection (Staphylococcus aureus; [17]) | Mortality of mice in different days after infection (Staphylococcus aureus; [18]) | Mortality of mice in different days after infection (Staphylococcus aureus; [20]) | Mortality of mice in different days after infection (Staphylococcus aureus; [21]) | Mortality of mice in different days after infection (Staphylococcus aureus; [22]) | Mortality of mice in different days after infection (Staphylococcus aureus; [23])
6.7** day: Mean survival Time (Pseudomonas aeruginosa; [7])
0: Mortality of mice in different days after infection (Pseudomonas aeruginosa; [10]) | Mortality of mice in different days after infection (Pseudomonas aeruginosa; [11]) | Mortality of mice in different days after infection (Pseudomonas aeruginosa; [12]) | Mortality of mice in different days after infection (Pseudomonas aeruginosa; [24]) | Mortality of mice in different days after infection (Staphylococcus aureus; [12])
6.3** day: Mean survival Time (Staphylococcus aureus; [7])
8.6** day: Mean survival Time (Pseudomonas aeruginosa; [9])
2: Mortality of mice in different days after infection (Pseudomonas aeruginosa; [13]) | Mortality of mice in different days after infection (Pseudomonas aeruginosa; [17]) | Mortality of mice in different days after infection (Pseudomonas aeruginosa; [18]) | Mortality of mice in different days after infection (Pseudomonas aeruginosa; [19]) | Mortality of mice in different days after infection (Pseudomonas aeruginosa; [20]) | Mortality of mice in different days after infection (Pseudomonas aeruginosa; [21]) | Mortality of mice in different days after infection (Pseudomonas aeruginosa; [22]) | Mortality of mice in different days after infection (Staphylococcus aureus; [13]) | Mortality of mice in different days after infection (Staphylococcus aureus; [14]) | Mortality of mice in different days after infection (Staphylococcus aureus; [19]) | Mortality of mice in different days after infection (Staphylococcus aureus; [24])
7.3** day: Mean survival Time (Staphylococcus aureus; [8])
